Assay [1] concerns the target Mitogen-activated protein kinase kinase kinase kinase 2 (Homo sapiens) (UniProt Q12851). Conditions: at 1 µM.
Assay [2] deals with Hepatocyte growth factor receptor (Homo sapiens) (UniProt P08581). Conditions: at 1 µM.
Assay [3] addresses T1, Mitogen-activated protein kinase kinase kinase 19 (Homo sapiens) (UniProt Q56UN5).
T1 sequence (whole entry): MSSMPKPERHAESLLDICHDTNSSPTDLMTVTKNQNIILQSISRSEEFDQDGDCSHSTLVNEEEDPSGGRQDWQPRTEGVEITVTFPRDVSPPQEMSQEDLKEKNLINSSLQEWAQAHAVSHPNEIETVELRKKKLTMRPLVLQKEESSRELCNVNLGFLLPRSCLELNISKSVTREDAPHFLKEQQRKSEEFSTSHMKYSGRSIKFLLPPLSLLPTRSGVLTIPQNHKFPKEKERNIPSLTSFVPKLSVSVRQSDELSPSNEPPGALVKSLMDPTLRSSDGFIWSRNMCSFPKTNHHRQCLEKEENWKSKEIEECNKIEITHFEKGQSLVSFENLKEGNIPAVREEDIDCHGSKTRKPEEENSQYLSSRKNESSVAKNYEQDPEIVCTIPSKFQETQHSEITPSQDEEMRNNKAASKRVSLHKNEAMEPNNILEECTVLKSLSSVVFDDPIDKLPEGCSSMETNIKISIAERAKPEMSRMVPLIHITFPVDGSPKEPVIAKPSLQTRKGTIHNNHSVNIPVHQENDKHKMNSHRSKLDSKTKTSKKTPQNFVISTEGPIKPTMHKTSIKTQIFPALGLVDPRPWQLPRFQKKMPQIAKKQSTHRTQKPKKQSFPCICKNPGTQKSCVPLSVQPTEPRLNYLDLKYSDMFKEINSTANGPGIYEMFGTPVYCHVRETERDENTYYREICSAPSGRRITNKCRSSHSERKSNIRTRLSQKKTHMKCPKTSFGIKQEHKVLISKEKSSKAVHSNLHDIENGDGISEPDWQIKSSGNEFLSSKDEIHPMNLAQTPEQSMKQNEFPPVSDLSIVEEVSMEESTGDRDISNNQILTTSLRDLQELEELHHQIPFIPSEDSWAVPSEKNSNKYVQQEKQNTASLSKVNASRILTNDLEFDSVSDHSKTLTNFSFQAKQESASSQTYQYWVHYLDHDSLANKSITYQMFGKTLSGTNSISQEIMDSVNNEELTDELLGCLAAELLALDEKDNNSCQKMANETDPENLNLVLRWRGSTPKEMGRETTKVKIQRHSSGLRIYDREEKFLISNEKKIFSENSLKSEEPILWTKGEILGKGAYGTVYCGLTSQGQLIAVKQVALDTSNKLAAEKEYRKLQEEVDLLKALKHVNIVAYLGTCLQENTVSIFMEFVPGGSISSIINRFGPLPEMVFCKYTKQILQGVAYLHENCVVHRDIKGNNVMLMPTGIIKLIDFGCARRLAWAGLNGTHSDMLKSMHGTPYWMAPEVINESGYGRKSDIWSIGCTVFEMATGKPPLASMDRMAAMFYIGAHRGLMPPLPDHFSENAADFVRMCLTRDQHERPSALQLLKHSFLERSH
The assay is described as follows: Selectivity interaction (KinomeScan (DiscoverX)) EUB0000701a MAP3K19. Conditions: at 1 µM.

For assay [4], the target named is T2, Dual specificity mitogen-activated protein kinase kinase 5 (Homo sapiens) (UniProt Q13163).
T2 sequence (whole entry): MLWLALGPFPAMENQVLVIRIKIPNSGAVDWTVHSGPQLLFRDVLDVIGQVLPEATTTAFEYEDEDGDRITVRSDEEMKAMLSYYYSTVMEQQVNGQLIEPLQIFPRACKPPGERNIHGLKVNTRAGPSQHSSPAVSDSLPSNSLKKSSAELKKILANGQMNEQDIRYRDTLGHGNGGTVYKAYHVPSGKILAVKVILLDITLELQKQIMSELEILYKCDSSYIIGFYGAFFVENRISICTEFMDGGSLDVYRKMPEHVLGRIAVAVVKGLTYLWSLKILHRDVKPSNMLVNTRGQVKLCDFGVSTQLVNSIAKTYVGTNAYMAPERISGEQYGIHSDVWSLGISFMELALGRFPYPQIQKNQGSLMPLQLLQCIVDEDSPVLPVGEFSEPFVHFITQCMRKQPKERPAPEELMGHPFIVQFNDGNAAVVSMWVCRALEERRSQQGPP
The assay is described as follows: Selectivity interaction (KinomeScan (DiscoverX)) EUB0000701a MAP2K5. Conditions: at 1 µM.

For assay [5], the target named is Tyrosine-protein kinase ABL1 (Homo sapiens, UniProt P00519). The assay can be described thus: Selectivity interaction (KinomeScan (DiscoverX)) EUB0000701a ABL1. Particulars: at 1 µM.
For assay [6], the system named is T3, Receptor-type tyrosine-protein kinase FLT3 (Homo sapiens), P36888 [D835V].
T3 sequence (whole entry): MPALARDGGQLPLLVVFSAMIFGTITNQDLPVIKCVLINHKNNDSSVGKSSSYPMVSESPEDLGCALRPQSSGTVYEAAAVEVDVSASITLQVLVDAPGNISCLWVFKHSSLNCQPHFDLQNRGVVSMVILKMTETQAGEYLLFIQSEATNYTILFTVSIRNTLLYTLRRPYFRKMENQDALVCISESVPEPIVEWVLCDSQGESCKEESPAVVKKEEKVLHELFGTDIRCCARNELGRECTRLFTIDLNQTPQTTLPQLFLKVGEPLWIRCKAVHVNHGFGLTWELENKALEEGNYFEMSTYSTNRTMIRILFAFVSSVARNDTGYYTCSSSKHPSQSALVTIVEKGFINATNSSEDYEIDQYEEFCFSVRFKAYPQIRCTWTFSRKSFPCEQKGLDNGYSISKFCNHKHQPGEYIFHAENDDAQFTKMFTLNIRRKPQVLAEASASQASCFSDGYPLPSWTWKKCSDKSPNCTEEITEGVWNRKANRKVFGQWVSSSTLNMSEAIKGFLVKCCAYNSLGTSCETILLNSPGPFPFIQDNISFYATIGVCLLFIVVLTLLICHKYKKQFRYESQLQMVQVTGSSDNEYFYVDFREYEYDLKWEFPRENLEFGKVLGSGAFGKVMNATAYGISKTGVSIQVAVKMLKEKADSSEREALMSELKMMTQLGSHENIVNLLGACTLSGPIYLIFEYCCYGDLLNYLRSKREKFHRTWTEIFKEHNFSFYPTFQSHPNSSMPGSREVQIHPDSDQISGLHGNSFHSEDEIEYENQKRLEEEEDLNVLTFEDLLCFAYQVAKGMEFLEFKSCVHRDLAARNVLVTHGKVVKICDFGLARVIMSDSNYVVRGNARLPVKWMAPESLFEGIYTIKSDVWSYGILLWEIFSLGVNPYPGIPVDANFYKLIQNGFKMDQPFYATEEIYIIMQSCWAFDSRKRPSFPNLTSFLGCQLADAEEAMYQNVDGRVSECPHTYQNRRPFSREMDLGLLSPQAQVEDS
The assay is described as follows: (§1) Selectivity interaction (KinomeScan (DiscoverX)) EUB0000701a FLT3. Particulars: at 1 µM.

Assay [7] relates to Receptor-type tyrosine-protein kinase FLT3 (Homo sapiens), P36888 [UNDEFINED MUTATION]. The assay is described as §1. Conditions: at 1 µM.
For assay [8], the target named is Inhibitor of nuclear factor kappa-B kinase subunit epsilon (Homo sapiens) (UniProt Q14164). Conditions: at 1 µM.
Assay [9] deals with T4, Bromodomain-containing protein 7 (Homo sapiens) (UniProt Q9NPI1).
T4 sequence (whole entry): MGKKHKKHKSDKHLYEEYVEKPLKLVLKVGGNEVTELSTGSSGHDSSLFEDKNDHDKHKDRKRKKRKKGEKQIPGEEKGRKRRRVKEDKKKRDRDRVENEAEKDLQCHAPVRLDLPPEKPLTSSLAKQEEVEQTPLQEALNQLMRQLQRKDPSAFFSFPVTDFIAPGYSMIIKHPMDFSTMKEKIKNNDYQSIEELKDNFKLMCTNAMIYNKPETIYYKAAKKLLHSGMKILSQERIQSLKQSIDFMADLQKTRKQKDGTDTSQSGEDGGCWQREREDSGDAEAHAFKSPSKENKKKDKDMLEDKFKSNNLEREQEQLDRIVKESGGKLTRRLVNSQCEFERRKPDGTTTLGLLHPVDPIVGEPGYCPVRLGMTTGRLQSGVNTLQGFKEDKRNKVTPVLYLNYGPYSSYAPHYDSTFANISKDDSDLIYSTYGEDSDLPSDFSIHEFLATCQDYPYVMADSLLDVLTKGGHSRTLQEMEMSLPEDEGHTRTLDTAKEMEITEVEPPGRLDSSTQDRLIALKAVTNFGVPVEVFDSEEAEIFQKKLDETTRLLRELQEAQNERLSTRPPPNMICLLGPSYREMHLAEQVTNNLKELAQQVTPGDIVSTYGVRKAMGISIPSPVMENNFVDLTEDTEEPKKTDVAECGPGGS
The assay is described as follows: Selectivity interaction (Bromodomain panel (DSF assay)) EUB0000004c BRD7. On the technique in general: In DSF a fluorescence change marks the thermal transition of the protein.

The target in assay [10] is Bromodomain-containing protein 9 (Homo sapiens) (UniProt Q9H8M2). The assay can be described thus: Selectivity interaction (Bromodomain panel (DSF assay)) EUB0000004c BRD9.
Assay [11] deals with T5, Chromatin remodeling regulator CECR2 (Homo sapiens, UniProt Q9BXF3). The assay can be described thus: Selectivity interaction (Bromodomain panel (DSF assay)) EUB0000004c CECR2.
Assay [12] deals with T5, Chromatin remodeling regulator CECR2. The assay is described as follows: Selectivity interaction (Bromoscan (DiscoverX, BromoKdELECT)) EUB0000004c CECR2. Conditions: at 10 µM.
The target in another assay is CREB-binding protein (Homo sapiens, UniProt Q92793). The assay is described as follows: Selectivity interaction (Bromoscan (DiscoverX, BromoKdELECT)) EUB0000004c CREBBP. Conditions: at 10 µM.
Assay [13] deals with Transcription initiation factor TFIID subunit 1 (Homo sapiens, UniProt P21675). The assay can be described thus: Selectivity interaction (Bromoscan (DiscoverX, BromoKdELECT)) EUB0000004c TAF1. Conditions: at 10 µM.
Assay [14] addresses Epidermal growth factor receptor (Homo sapiens, UniProt P00533). The assay is described as follows: Selectivity interaction (KinomeScan (DiscoverX)) EUB0000709a EGFR. Particulars: at 100 nM.
In assay [15] the target is T6, Phosphatidylinositol 4,5-bisphosphate 3-kinase catalytic subunit delta isoform (Homo sapiens) (UniProt O00329).
T6 sequence (whole entry): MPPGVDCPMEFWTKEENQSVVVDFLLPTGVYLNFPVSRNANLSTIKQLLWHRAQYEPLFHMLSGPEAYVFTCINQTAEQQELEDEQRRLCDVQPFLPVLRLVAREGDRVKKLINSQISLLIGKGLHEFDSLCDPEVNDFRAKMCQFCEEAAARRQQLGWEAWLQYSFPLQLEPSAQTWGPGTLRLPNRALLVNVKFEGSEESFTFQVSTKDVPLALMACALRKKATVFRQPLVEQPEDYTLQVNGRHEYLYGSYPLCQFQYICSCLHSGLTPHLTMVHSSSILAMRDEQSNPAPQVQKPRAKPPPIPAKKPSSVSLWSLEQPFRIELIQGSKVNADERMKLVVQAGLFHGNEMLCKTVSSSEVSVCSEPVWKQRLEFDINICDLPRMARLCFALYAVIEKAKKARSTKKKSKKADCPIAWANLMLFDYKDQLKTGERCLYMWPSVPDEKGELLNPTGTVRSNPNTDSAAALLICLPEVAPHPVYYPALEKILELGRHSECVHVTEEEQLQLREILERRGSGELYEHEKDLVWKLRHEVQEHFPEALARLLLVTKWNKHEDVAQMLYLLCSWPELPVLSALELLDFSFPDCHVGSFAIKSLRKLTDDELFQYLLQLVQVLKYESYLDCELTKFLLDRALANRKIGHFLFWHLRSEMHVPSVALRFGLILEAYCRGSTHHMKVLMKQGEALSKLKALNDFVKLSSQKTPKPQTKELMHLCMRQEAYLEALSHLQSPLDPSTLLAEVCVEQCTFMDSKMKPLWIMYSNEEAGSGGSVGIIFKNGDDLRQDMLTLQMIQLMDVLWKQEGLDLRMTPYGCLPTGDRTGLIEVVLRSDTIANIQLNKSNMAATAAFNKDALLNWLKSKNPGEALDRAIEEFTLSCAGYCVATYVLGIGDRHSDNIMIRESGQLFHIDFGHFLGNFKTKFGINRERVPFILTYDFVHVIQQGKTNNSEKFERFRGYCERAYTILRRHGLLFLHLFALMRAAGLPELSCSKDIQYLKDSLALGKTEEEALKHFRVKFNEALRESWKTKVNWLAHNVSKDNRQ
The assay can be described thus: Selectivity interaction (KinomeScan (DiscoverX)) EUB0000709a PIK3CD. Conditions: at 100 nM.

Assay [16] concerns the target cAMP-dependent protein kinase catalytic subunit alpha (Homo sapiens, UniProt P17612). The assay is described as follows: Selectivity interaction (KinomeScan (DiscoverX)) EUB0000709a PRKACA. Particulars: at 100 nM.
The target in assay [17] is T2, Dual specificity mitogen-activated protein kinase kinase 5 (Homo sapiens). The assay is described as follows: Selectivity interaction (ScanMAX (DiscoverX)) EUB0000700a MAP2K5. Particulars: at 10 µM.

T5 sequence (Q9BXF3 whole entry, looked up): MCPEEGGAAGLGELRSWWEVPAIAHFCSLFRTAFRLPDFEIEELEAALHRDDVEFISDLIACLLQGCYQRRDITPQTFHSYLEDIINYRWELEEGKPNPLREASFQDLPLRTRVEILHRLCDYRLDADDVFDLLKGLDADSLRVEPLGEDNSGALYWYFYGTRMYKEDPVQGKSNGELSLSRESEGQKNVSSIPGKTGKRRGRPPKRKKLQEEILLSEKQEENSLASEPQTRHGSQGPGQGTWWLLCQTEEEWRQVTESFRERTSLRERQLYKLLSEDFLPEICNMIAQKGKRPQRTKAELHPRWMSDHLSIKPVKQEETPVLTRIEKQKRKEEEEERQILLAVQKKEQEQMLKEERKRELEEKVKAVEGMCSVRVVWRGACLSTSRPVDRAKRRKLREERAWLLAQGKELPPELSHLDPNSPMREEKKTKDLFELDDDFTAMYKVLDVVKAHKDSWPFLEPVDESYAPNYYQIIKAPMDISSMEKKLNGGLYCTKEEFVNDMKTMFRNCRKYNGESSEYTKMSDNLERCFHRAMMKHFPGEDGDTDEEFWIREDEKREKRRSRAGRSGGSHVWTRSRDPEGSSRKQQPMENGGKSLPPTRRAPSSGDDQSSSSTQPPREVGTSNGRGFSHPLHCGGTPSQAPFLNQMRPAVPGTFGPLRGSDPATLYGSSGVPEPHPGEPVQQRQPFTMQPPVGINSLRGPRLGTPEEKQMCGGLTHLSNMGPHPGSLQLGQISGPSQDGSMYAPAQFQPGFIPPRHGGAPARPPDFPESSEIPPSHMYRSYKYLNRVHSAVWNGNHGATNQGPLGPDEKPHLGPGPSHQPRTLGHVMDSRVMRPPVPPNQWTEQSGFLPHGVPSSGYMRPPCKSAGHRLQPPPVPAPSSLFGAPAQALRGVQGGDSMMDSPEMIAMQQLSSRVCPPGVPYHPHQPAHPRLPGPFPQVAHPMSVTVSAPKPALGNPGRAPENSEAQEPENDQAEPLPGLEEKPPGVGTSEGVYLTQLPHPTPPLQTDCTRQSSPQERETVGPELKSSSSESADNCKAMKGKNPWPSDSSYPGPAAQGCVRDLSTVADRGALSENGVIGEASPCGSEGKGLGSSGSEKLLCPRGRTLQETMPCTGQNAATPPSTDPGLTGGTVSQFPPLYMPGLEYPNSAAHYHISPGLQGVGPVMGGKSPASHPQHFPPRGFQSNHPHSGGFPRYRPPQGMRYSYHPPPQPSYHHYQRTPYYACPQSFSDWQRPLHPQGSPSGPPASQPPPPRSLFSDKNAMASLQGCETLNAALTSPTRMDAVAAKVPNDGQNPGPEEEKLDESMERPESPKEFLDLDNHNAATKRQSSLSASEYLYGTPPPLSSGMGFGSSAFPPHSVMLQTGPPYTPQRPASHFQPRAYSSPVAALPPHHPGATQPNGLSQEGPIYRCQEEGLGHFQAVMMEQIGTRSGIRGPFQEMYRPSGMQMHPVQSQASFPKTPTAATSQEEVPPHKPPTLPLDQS
Chain of Bromodomain-containing protein 9 (Homo sapiens) (Q9H8M2 whole entry): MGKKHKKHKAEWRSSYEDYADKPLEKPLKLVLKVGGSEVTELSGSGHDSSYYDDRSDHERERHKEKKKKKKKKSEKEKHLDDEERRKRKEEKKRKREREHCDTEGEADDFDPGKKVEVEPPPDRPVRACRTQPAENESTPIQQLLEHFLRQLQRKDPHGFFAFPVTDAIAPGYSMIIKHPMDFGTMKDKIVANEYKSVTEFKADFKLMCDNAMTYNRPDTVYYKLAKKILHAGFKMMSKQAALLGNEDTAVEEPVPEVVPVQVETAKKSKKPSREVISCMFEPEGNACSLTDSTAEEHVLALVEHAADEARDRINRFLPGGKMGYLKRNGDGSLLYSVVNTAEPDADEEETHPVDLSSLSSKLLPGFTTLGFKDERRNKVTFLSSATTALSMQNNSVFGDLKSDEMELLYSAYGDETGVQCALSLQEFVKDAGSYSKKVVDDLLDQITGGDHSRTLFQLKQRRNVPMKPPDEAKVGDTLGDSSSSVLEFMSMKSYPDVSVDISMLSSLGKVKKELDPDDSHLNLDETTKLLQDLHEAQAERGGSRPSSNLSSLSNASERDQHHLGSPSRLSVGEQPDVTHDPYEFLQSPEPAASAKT
Chain of Hepatocyte growth factor receptor (Homo sapiens) (P08581 whole entry): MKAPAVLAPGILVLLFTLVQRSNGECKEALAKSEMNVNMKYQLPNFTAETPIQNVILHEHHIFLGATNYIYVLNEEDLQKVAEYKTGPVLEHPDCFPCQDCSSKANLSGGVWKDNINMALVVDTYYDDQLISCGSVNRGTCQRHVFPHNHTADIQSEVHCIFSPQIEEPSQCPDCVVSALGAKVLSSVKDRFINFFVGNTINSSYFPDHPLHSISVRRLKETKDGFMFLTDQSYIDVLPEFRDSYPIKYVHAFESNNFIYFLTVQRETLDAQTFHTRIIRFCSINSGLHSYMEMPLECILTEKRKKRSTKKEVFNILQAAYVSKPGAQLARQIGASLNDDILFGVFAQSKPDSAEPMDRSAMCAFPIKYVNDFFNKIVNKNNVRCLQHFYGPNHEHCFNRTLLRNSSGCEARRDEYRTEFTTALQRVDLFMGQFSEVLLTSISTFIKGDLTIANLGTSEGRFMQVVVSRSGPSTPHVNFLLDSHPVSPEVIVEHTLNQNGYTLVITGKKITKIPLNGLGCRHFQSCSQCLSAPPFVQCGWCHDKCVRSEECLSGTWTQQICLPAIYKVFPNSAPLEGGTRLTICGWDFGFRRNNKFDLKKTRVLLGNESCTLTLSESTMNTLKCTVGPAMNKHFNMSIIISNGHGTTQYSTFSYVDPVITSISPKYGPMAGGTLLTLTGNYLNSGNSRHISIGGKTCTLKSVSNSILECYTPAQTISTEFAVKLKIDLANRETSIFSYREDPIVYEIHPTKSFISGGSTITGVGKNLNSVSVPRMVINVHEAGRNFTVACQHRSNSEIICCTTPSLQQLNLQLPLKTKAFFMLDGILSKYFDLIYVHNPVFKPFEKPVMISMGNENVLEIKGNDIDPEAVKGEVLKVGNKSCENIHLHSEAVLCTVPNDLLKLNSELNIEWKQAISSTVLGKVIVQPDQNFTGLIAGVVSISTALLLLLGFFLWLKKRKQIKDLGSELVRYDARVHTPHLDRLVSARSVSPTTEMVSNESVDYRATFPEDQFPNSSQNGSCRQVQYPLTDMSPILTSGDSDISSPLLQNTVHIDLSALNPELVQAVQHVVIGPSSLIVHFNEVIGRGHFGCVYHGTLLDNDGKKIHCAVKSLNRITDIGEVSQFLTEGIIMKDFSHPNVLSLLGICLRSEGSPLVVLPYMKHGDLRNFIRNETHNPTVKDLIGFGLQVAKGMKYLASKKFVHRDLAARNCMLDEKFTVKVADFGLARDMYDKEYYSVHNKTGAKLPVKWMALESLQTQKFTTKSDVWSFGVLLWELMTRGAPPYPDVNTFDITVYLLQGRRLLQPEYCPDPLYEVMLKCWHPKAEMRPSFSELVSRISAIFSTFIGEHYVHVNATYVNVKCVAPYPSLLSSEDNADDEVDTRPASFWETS
Chain of Tyrosine-protein kinase ABL1 (P00519 whole entry): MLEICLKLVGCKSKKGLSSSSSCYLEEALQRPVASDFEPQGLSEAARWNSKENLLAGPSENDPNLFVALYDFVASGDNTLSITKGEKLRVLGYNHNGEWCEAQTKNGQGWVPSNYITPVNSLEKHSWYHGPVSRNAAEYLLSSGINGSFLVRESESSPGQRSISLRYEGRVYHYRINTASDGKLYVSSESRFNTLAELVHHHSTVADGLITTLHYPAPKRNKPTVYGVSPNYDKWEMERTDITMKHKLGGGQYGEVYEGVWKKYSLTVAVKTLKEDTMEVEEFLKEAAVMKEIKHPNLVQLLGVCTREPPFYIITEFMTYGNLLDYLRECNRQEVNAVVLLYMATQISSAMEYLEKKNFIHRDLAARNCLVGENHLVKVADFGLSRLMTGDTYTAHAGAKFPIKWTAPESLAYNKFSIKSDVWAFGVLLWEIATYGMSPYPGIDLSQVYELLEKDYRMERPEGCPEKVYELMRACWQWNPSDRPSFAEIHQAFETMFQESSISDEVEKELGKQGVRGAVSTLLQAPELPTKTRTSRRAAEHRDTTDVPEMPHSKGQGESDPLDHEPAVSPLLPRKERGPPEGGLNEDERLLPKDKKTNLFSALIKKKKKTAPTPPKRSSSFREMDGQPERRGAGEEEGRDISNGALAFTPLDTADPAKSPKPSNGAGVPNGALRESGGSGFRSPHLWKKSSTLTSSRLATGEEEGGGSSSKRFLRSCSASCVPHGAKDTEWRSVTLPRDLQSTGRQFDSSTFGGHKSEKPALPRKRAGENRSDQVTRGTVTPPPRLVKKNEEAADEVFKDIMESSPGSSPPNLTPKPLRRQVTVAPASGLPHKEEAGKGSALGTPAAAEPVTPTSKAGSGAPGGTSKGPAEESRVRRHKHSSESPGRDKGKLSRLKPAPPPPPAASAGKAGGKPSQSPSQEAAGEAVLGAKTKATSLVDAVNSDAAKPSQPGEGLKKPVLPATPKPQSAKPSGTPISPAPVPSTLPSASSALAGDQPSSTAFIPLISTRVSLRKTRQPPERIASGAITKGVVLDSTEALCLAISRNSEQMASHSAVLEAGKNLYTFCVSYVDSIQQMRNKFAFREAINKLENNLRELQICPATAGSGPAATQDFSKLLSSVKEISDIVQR

For the compound `C[C@]1(O)C[C@@H](c2nc(-c3ccc4ccc(-c5ccccc5)nc4c3)c3c(N)nccn32)C1`, the values for the % of inhibition in assay [1] and in assay [2] were 99% and 86%, respectively.

Take `CN(C)c1ncnc(-c2ccc3nc(Nc4cc(CN5CCN(C(=O)CC(F)(F)F)CC5)ccn4)[nH]c3c2)c1Cl`: the % of control in [3] turned out to be 15%; in [4], 1.8%; in [5], 4.2%; in assay [6] it was 7%; in [7], 15%; in assay [8], 13%.

On to `COc1cc(-c2cn(C)c(=O)c3cnccc23)c(OC)cc1CN(C)C`, for which the dTm was 6.47 K in assay [9], 9.21 K in assay [10] and 5.61 K in [11]. The values for the % of control (in assay [12]; on CREB-binding protein; in [13]) were 0%, 7.2% and 8.4%, respectively.

For `Cn1cc(Cl)c2c(Oc3c(F)cc(Nc4cc(Cl)nc(N)n4)cc3F)ccnc21`, the % of control in assay [14] was found to be 52%; in [15], 51%; in assay [16], 28%.

Compound `C[C@H](NC(=O)Nc1cc2[nH]ncc2c(CO)n1)c1ccccn1` yielded a % of control in [17] of 17.6%.

Values taken from ChEMBL document CHEMBL5212743, “Selectivity Literature for EUbOPEN Chemogenomics Library wave 3” (2023).
